In data set [1] the target is T1, D2 (Rattus norvegicus, UniProt P61169).
T1 construct: Rat striata were homogenized; from tissue; host or cells: rat striatum membranes
Description: Dopamine receptor binding, [3H]sulpiride. The conditions noted are these: 3 nM [3H]sulpiride; rat striata; 60 minutes; read-out: Receptor Potency D2 (Ki, nMol). As to the method:
Dopamine receptor binding was determined using [^3 H] sulpiride. Rat striata were homogenized in 20 volumes of ice-cold 50 mM Tris-HCl (pH 7.5), and the resulting homogenate was centrifuged at 48,000 × g for 10 minutes. The resulting pellet was resuspended in the original volume of 50 mM Tris HCl and centrifuged as previously described. […] The filters were then washed 3 × with 5 mL of 50 mM Tris-HCl containing 100 mM NaCl, and filter bound radioactivity was quantified using liquid scintillation spectrometry.

Data set [2] has as its target sigma sites. The data set is described as follows: Sigma receptor binding assay, [3H]DTG. Particulars: 5 nM [3H]DTG; guinea pig whole brain; room temperature, 45 minutes; read-out: Receptor Potency Sigma DTG (IC50, nMol). As to the method:
(§1) Two selective sigma receptor ligands, [^3 H](+)-3-[3-hydroxyphenyl]-N-(1 propyl)piperidine [(+)-3-PPP] and [^3 H] Ditolylguanidine (DTG), were used to label sigma sites in brain tissue.
(§2) The tissue preparation and assay conditions employed when using either of these ligands were essentially the same. Frozen whole guinea pig brains (obtained from Pel-Freez, Rogers, Ariz.) were homogenized in 10 volumes of ice-cold 0.32M sucrose. The resulting pellet was resuspended in 10 volumes of ice-cold 50 mM Tris-HCl (pH 7.4), incubated at 37 ° C. for 30 minutes, and centrifuged at 22,000 × g for 20 minutes. The final tissue suspension was made in 50 mM Tris-HCl (pH 7.4) to a concentration of 20 mg original wet weight/mL. 800 μL of tissue suspension was added to tubes containing 5 nM [^3 H] DTG or 4 nM [^3 H] […] The final assay volume was 1 mL. The assay tubes were gently vortexed, and the binding reaction was carried out for 45 minutes at room temperature. The reaction was terminated by rapid filtration over Whatman GF/B glass fiber filters, which were then rinsed 3x with 5 mL of 50 mM Tris-HCl. Filter bound radioactivity was quantified using liquid scintillation spectrometry.

Data set [3] is described as follows: Induction of haloperidol-like catalepsy. Format: in vivo, mouse. Particulars: for TD50 at 0.5 h: mouse, in vivo. The source says:
[…]. At the time of the test the front paws of the mouse were placed on a 6 mm diameter rod which was mounted between the side walls of the apparatus, 39 mm above the floor. Gentle pressure was applied from the forefinger to immobilize the animal, with its back in a slightly arched (concave) position. The experimenter then released the mouse and recorded the latency to recover normal posture, as defined by return of at least one forepaw to the floor or placement of one hindlimb on the bar. […] TD50 values for lead compounds and reference compounds were confirmed in side-by-side studies by an experimenter blind to treatment conditions.

A short description of data set [4]: Reversal of Amphetamine-Induced Hyperlocomotion. Format: in vivo. Particulars: Mus musculus, ip, read-out: Induced Locomotion Amphetamine (minimally effective dose, MED).
Description: Opto-varimex locomotor monitors (Columbus Instruments, Columbus, Ohio) were used to assess locomotor activity. The monitors consist of a 37×37 cm square plexiglass open field surrounded by an outer enclosure housing a 15×15 array of infrared photobeams. Placement of the mouse in the open field interrupts one or more beams. Movement is detected by successive interruption of more than one beam (setting: box size - 1). The monitors were placed on separate shelves in a dark test room. An IBM compatible computer (Compaq) monitored beam interruptions and calculated indices of locomotor activity (distance travelled, time ambulating) and stereotype behavior (number of small movements, time in stereotypy or small movements). Because the dose of amphetamine in these studies was too low to produce selective increases in stereotyped behavior, distance travelled was the primary dependent variable.
In data set [5] the target is T2, sigma sites (Cavia porcellus, UniProt Q60492).
T2 construct: Frozen whole guinea pig brains; tissue Pel-Freez, Rogers, Ariz; host or cells: whole guinea pig brain membranes
T2 sequence (Q60492 whole entry): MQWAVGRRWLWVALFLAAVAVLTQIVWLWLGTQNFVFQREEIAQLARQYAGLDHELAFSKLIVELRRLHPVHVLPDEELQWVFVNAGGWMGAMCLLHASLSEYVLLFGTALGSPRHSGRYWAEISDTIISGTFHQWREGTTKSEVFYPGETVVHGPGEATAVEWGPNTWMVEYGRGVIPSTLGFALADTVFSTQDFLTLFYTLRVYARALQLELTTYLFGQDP
The data set is described as follows: Sigma receptor binding assay, [3H](+)-3-PPP. Particulars: 4 nM [3H](+)-3-PPP; guinea pig whole brain; room temperature, 45 minutes; read-out: Receptor Potency Sigma PPP (IC50, nMol). As to the method: as §1, §2

Data set [6] can be described thus: Reversal of Phencyclidine-Induced Hyperlocomotion. Format: in vivo, mouse. The conditions noted are these: for minimal effective dose: Mus musculus, read-out: Induced Locomotion PCP (minimally effective dose, MED).
Description: Opto-varimex locomotor monitors (Columbus Instruments, Columbus, Ohio) were used to assess locomotor activity. The monitors consist of a 37×37 cm square plexiglass open field surrounded by an outer enclosure housing a 15×15 array of infrared photobeams. Placement of the mouse in the open field interrupts one or more beams. Movement is detected by successive interruption of more than one beam (setting: box size - 1). The monitors were placed on separate shelves in a dark test room. An IBM compatible computer (Compaq) monitored beam interruptions and calculated indices of locomotor activity (distance travelled, time ambulating) and stereotype behavior (number of small movements, time in stereotypy or small movements).
Male CFl mice (25°-30 g) were obtained from Harlan Sprague Dawley (Indianapolis, (N) and group-housed with free access to food and water for at least four days prior to testing. All tests took place during the light period of a 12:12 hour light-dark cycle. Each daily test consisted of one group of mice receiving a vehicle injection and an injection of amphetamine as the agonist. One group received two vehicle injections, and one or more groups received test compound plus amphetamine. Test compounds or the appropriate vehicles were administered 20 minutes prior to the locomotor test in studies using an intraperitoneal (i.p.) route of administration with mice, 30 minutes prior to test session for studies using an i.p. route of administration to rats, 45 minutes prior to the test session for studies using an oral (p.o.) route of administration with mice and 55 minutes prior to the locomotor test for studies using a p.o. route of administration to rats.
The procedure and data analysis were identical to that reported above for reversal of amphetamine hyperlocomotion with the exception that 3 mg/kg phencyclidine was injected in place of amphetamine 10 minutes prior to the test session.
For data set [7] the following is noted: background statement; SK&F 10047, PCP, amphetamine; cited from earlier work.
Another data set deals with sigma binding sites. The conditions noted are these: background statement; cited from earlier work.
The conditions of data set [8]: cited from earlier work.
Data set [9] deals with D2. Particulars: background statement; cited from earlier work.
The conditions of data set [10]: clinical trials; cited from earlier work.
The mark [11] stands for this setting: mice, 30 minutes after injection, NE = no effect to dose shown, read-out: Catalepsy (TD50).
Setting [12] is: phencyclidine 3 mg/kg, mice, NE = no effect to dose shown.
Setting [13] is: amphetamine 1.5 mg/kg i.p., mice, NE = no effect to dose shown.
Setting [14] is: mice, 30 minutes after injection, NE = no effect to dose shown.

“Also recorded” adds a separate entry of the source. Where a name gives a salt, the structure may show the parent alone. Read-outs that look alike come from different tables or passages of the source. A value given as a limit tells only on which side of the number the result lay.

T1 sequence (P61169 whole entry): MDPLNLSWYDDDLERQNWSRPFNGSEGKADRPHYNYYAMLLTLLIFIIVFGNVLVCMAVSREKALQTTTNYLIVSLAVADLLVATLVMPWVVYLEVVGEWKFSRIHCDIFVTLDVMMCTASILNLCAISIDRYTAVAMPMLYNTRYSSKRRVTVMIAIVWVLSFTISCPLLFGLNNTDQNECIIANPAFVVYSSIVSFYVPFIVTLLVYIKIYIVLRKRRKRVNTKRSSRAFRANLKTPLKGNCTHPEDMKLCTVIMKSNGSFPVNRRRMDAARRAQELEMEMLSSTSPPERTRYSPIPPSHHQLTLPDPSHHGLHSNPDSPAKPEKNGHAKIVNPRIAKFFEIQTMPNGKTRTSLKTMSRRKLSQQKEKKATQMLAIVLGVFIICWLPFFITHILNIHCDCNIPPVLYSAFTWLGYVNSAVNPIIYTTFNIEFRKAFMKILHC

The term Ki denotes the equilibrium dissociation constant of an inhibitor or competing ligand from its target. For orientation: IC50 means the concentration at which inhibition is half-maximal. For the compound `CN(C)CCCCCCOc1ccc2oc(-c3ccccc3)cc(=O)c2c1` [Example 4, 6-[6-Dimethylamino)hexoxy1-2-phenyl-4H-1-benzopyran-4-one hydrochloride], the inhibition constant Ki on D2 [1] was found to be 5.55 µM. In addition, the IC50 on sigma sites [2] was 0.432 µM; on sigma sites [5], 0.335 µM. Further, the TD50 at 0.5 h in [3] (setting [11]) stood at 38 mg/kg. In addition, the minimal effective dose in [4] stood at 30 mg/kg. In addition, in data set [6] (setting [12]), the “Induced Locomotion PCP (minimally effective dose, MED)” value is recorded as “NE (30)”.

The compound `O=c1cc(C2CCCCC2)oc2ccc(OCCCCCCN3CCCCC3)cc12` [Example 34, 2-Cyclohexyl-6-(piperidinylhexoxy)-4H-1-benzopyran-4-one hydrochloride] had a TD50 at 0.5 h in data set [3] of 30 mg/kg. For the same compound, the minimal effective dose in data set [4] (setting [13]) was 10 mg/kg. Besides, the IC50 at sigma sites [5] turned out to be 0.032 µM.

Regarding `O=c1cc(C2CCCCC2)oc2ccc(OCCCCCCN3CCC(O)CC3)cc12` [Example 26, 2-Cyclohexyl-6-[6-4-hydroxypiperidinyl)hexoxy]-4H-1-benzopyran-4-one hydrochloride], the Ki at D2 [1] was 25 µM. Also, the concentration for half-maximal inhibition (IC50) at sigma sites [2] worked out at 0.088 µM; at sigma sites [5], 0.046 µM. In data set [3], this compound returned a TD50 at 0.5 h of 50 mg/kg. Moreover, in data set [4] (setting [13]), the minimal effective dose is 20 mg/kg.

For the compound `O=C(CCCN1CCC(O)(c2ccc(Cl)cc2)CC1)c1ccc(F)cc1` [Haloperidol, reference compound], the TD50 at 0.5 h in [3] (setting [11]) worked out at 0.14 mg/kg. Besides, the “reversal of stimulant and psychotomimetic effects” value in data set [7] is “antagonize the stimulant/psychotomimetic effects of the dopamine agonist, amphetamine, and presumed sigma agonists such as PCP; also recorded: reverses the stimulant and psychotomimetic effects of SK&F 10047 and PCP”. In addition, the minimal effective dose amounted to 0.075 mg/kg in data set [4] and 0.15 mg/kg in [6]. Further, in the data set on sigma binding sites, the “displacement of [3H]DTG and [3H](+)-3-PPP from sigma sites” value is “displace [^3 H]DTG and [^3 H](+)-3-PPP from sigma sites”.

Turning to `CN1CCN(C2=Nc3cc(Cl)ccc3Nc3ccccc32)CC1` [Clozapine, reference compound], the “Catalepsy (TD50)” value in data set [3] (setting [14]) is “NE (4)”. The extrapyramidal side effects entry in data set [8] (background statement) is “relatively free of extrapyramidal side effects”. Besides, in data set [8] (chronic administration), the agranulocytosis result is “produces agranulocytosis upon chronic administration”. Further, the minimal effective dose in [4] (setting [13]) was 1 mg/kg.

Take `O=c1cc(-c2ccccc2)oc2ccc(OCCCCCCN3CCOCC3)cc12` [Example 29, 6-(6-Morpholinylhexoxy)-2-phenyl-4H-1-benzopyran-4-one hydrochloride]: on D2 [1], the Ki came out at 18.7 µM. Also, the TD50 at 0.5 h in data set [3] (setting [11]) is 38 mg/kg. The minimal effective dose in data set [4] was 10 mg/kg.

Take `O=c1cc(-c2ccccc2)oc2ccc(OCCCCCCN3CCCCC3)cc12` [Example 28, 2-Phenyl-6-(6-piperidinylhexoxy)-4H-1-benzopyran-4-one hydrochloride]: the Ki on D2 [1] came to 4.45 µM. Besides, the TD50 at 0.5 h in data set [3] (setting [11]) was less than 30 mg/kg. For the same compound, the minimal effective dose in data set [4] (setting [13]) was 20 mg/kg; in data set [6] (setting [12]), 30 mg/kg. Moreover, the IC50 at sigma sites [5] is 0.054 µM.

For the compound `CCN1CCC[C@H]1CNC(=O)c1c(OC)ccc(Br)c1OC` [Remoxipride], the D2 blocking potency entry in the data set on D2 [9] is reported as “significant D2 blocking potency”.

As to `O=c1cc(-c2ccccc2Cl)oc2ccc(OCCCCCCN3CCC(O)CC3)cc12` [Example 49, 2-(2-Chlorophenyl)-6-(6-(4-hydroxypiperidinyl)hexoxy)-4H-1-benzopyran-4-onehydrochloride], on D2 [1], the Ki was found to be 4.05 µM. Further, the IC50 stood at 0.047 µM on sigma sites [2] and 0.029 µM at sigma sites [5]. Also, the minimal effective dose in data set [4] came to 30 mg/kg.

Take `C[C@@H]1CN(CCCn2c3ccccc3c3ccccc32)C[C@H](C)N1` [Rimcazole, reference compound]: on D2 [1], the inhibitory constant (Ki) came to 22.5 µM. Further, the IC50 at sigma sites [2] worked out at 1.62 µM. For the same compound, in data set [10], the “effectiveness in treating schizophrenia” value was “some effectiveness in treating schizophrenia” and the seizures entry is reported as “induce seizures”. In addition, the minimal effective dose in [4] turned out to be 20 mg/kg. The minimal effective dose in data set [6] is greater than 20 mg/kg. Also, the “potency at sigma sites” value in the data set with sigma binding sites is “only moderately potent at sigma sites”.

Regarding `O=c1cc(-c2ccccc2)oc2cc(OCCCCCCN3CCC(O)CC3)ccc12` [Example 37, 7-[6-(4-Hydroxypiperidinyl)hexoxy]-2-phenyl-4H-1-benzopyran-4-one], the minimal effective dose in [4] was 30 mg/kg. Further, on sigma sites [5], the 50% inhibitory concentration (IC50) worked out at 0.07 µM.

As to `O=c1cc(-c2ccccc2)oc2ccc(OCCCCCCN3CCC(O)CC3)cc12` [Example 6, 6-6(4-hydroxypiperidinyl)hexoxy]-2-phenyl-4H-1-benzopyran-4-one hydrochloride], on D2 [1], the Ki is 3.63 µM. In addition, the figures for the IC50 at sigma sites [2] and on sigma sites [5] were 0.1 µM and 0.124 µM, respectively. This compound had a TD50 at 0.5 h in [3] of 61 mg/kg. Besides, the minimal effective dose in data set [4] (setting [13]) is 5 mg/kg; in [6] (setting [12]) it was 15 mg/kg.

Take `Cc1c(-c2ccccc2)oc2ccc(OCCCCCCN3CCC(O)CC3)cc2c1=O` [Example 39, 6-[6-(4-Hydroxypiperidinyl)hexoxy]-3-methyl-2-phenyl-4H-1-benzopyran-4-one hydrochloride]: in [3] (setting [14]), the “Catalepsy (TD50)” value was “NE (250)”. In data set [4] (setting [13]), the minimal effective dose amounted to 25 mg/kg.

Consider `OC(CCCN1CCN(c2ncc(F)cn2)CC1)c1ccc(F)cc1` (stereo not drawn) [BMY14802, reference compound], for which, on D2 [1], the Ki is 3 µM. Besides, on sigma sites [2], the 50% inhibitory concentration (IC50) stood at 0.237 µM. The minimal effective dose in [4] (setting [13]) stood at 15 mg/kg.

Turning to `c1ccc(C2(N3CCCCC3)CCCCC2)cc1` [PCP, phencyclidine], the “displacement of [3H]DTG and [3H](+)-3-PPP from sigma sites” value in the data set with sigma binding sites was “displace [^3 H]DTG and [^3 H](+)-3-PPP from sigma sites”.

The values are drawn from patent US5278174A, “Sigma binding site agents” (priority 1991, dated 1994).
